Data from patent US10227324B2 (Shanghai Haiyan Pharmaceutical Technology Co., Ltd., priority 2014, dated 2019).

What was measured:
[1] = system: Akt phosphorylation (Ser473-p-Akt) in PC-3 cells; assay: Inhibition of p-Akt phosphorylation level in PC-3 cells (cell level fluorescence imaging); assay type: cell-based; conditions: Homo sapiens; Akt phosphorylation in PC-3 cells, 2 hours incubation; read-out: PC-3 cell (IC50/nM)
Method in brief: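 PC-3 cells were exposed to compound (0.0046–10 μM, 8 points, duplicate) for 2 h, then fixed, permeabilised and stained with Ser473-p-Akt antibody, Alexa 488 secondary and PI.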

[2] = system: T47D cells; assay: Cell inhibitory activity detected by MTT assay, T47D; assay type: cell-based; conditions: Homo sapiens, T47D, 72 h, read-out: T47D cell (IC50/nM), cell growth inhibition
[3] = Metabolism stability assay in liver microsomes; assay type: in vitro ADME, mouse; conditions: liver microsomal metabolism in mice
Protocol: Buffer A: 1 L solution of 100 mM potassium dihydrogen phosphate containing 1 mM EDTA (Sigma, V900157-100G) was prepared. Buffer B: 1 L solution of 100 mM dipotassium hydrogen phosphate containing 1 mM EDTA was prepared. Buffer C: 700 mL of buffer B was taken out and titrated with buffer A to pH 7.4.
2.1 10 μl of 10 mM compound to be tested and 10 μl of 10 mM ketanserin were taken out and 190 μl of pure acetonitrile was added to each of them to prepare 500 μM compound to be tested and ketanserin, respectively.
2.2 20 μl (20 mg/mL) of liver microsomes (XENOTECH, H0610) stock solution was added to 513.4 μl of buffer C on wet ice. 0.75 mg/mL liver microsomal solution was obtained.
2.3 1.5 μl of each of the above-mentioned compound to be tested and ketanserin solution was added to 498.5 μl of liver microsomal solution (0.7 5 mg/mL) respectively on wet ice. 1.5 μM mixed solution of compound to be tested and 1.5 μM mixed solution of ketanserin were obtained.
2.4 At the time points 0, 5, 15, 30, 45, and 60 min, 30 μl of the mixed solution of compound to be tested and 30 μl of the mixed solution of ketanserin were dispensed into the reaction plate on wet ice, respectively.
2.5 5 mg reduced coenzyme II (Roche, 10621706001) was weighed and dissolved in 1 mL of buffer C. 6 mM reduced coenzyme II solution was obtained. The reduced coenzyme II solution was dispensed into the reaction plate.
2.6 Imipramine was dissolved to give a 10 mM solution. 10 μl imipramine solution was added to 100 mL of blank acetonitrile to generate the internal reference.
2.7 At 0 min, 135 μL of iced acetonitrile (Merck, UN 1648) containing the internal reference was added to each well and then 15 μL of buffer C was added.
2.8 The reaction plate was placed into a 37° C. water bath incubator for 5 min. In the reaction plate, 15 μL of reduced coenzyme II solution was added to each well to initiate the reaction, and the time keeping was started. At the time points of 5, 15, 30, 45, and 60 min, 135 μL of iced acetonitrile containing the internal reference was added to each well to terminate the reaction.
2.9 The reaction plate was sealed with an aluminum film, placed on a vibration mixer and shaken at 500 rpm for 5 min. The plate was then centrifuged in a centrifuge at 3750 rp for 15 min.
2.10 The sample was diluted with pure water in accordance with the ratio of 1:1 and detected by LC/MS.
Half-life: 0.693/K (the slope by plotting based on the incubation time and logarithm of the concentration value)
Clearance ratio: (0.693/half-life)*(1/protein concentration (0.5 mg/mL))*(proportional factor)
Wherein, the K value and the proportional factor were calculated by those skilled in the art according to the methods described in the prior art and contained in the instructions of the liver microsome product.

IC50 [1]: 369 nM
IC50 [2]: 62 nM
Clearance ratio (mL/min/kg) mouse [3]: 39.75 mL/min/kg
SMILES: CS(=O)(=O)C1(c2cc(-c3cnc(N)cc3F)nc(N3CCOCC3)n2)CC1 [Compound S-82]
